Laboratory results published in US20230157952A1, “METHOD FOR IMPROVING THE STABILITY OF A PHARMACEUTICAL COMPOSITION COMPRISING A HIGH PENETRATION DRUG, AND THE PHARMACEUTICAL COMPOSITION OBTAINED THEREFROM” (Techfields Inc., priority 2020, published 2023).
Each block holds one molecule with its values, some of them ahead of it.

Test: Effect of concentration on the stability of the solution (purity over time)
Conditions: for Purity (%) at Day 3 / Purity (%) at Day 7 / Purity (%) at hr 0 / Purity(%) at Day 14 / Purity(%) at Day 21 / Purity(%) at Day 28: 25° C.

SMILES: CCN(CC)CCOC(=O)CCCc1ccc(N(CCCl)CCCl)cc1.Cl
Purity (%) at Day 3 (0.01 wt % in water): 83.1% | Purity (%) at Day 7 (0.01 wt % in water): 72.9% | Purity (%) at hr 0 (0.01 wt % in water): 97.8% | Purity(%) at Day 14 (0.01 wt % in water): 56.9% | Purity(%) at Day 21 (0.01 wt % in water): 43.2% | Purity(%) at Day 28 (0.01 wt % in water): 34.3% | Purity (%) at Day 3 (0.1 wt % in water): 94.1% | Purity (%) at Day 7 (0.1 wt % in water): 89.6% | Purity (%) at hr 0 (0.1 wt % in water): 97.9% | Purity(%) at Day 14 (0.1 wt % in water): 81.5% | Purity(%) at Day 21 (0.1 wt % in water): 73.7% | Purity(%) at Day 28 (0.1 wt % in water): 62.5% | Purity (%) at Day 3 (1 wt % in water): 95.1% | Purity (%) at Day 7 (1 wt % in water): 91.9% | Purity (%) at hr 0 (1 wt % in water): 98.2% | Purity(%) at Day 14 (1 wt % in water): 85.9% | Purity(%) at Day 21 (1 wt % in water): 81.9% | Purity(%) at Day 28 (1 wt % in water): 76.9% | Purity (%) at Day 3 (3 wt % in water): 96.2% | Purity (%) at Day 7 (3 wt % in water): 95.0% | Purity (%) at hr 0 (3 wt % in water): 98.4% | Purity(%) at Day 14 (3 wt % in water): 91.0% | Purity(%) at Day 21 (3 wt % in water): 87.3% | Purity(%) at Day 28 (3 wt % in water): 83.7% | Purity (%) at Day 3 (5 wt % in water): 98.2% | Purity (%) at Day 7 (5 wt % in water): 97.8% | Purity (%) at hr 0 (5 wt % in water): 98.5% | Purity(%) at Day 14 (5 wt % in water): 97.0% | Purity(%) at Day 21 (5 wt % in water): 96.3% | Purity(%) at Day 28 (5 wt % in water): 95.0% | Purity (%) at Day 3 (7 wt % in water): 98.4% | Purity (%) at Day 7 (7 wt % in water): 98.2% | Purity (%) at hr 0 (7 wt % in water): 98.5% | Purity(%) at Day 14 (7 wt % in water): 98.0% | Purity(%) at Day 21 (7 wt % in water): 97.6% | Purity(%) at Day 28 (7 wt % in water): 97.4% | Purity (%) at Day 3 (8 wt % in water): 98. % | Purity (%) at Day 7 (8 wt % in water): 98.3% | Purity (%) at hr 0 (8 wt % in water): 98.5% | Purity(%) at Day 14 (8 wt % in water): 97.9% | Purity(%) at Day 21 (8 wt % in water): 97.7% | Purity(%) at Day 28 (8 wt % in water): 97.3% | Purity (%) at Day 3 (10 wt % in water): 98.5% | Purity (%) at Day 7 (10 wt % in water): 98.3% | Purity (%) at hr 0 (10 wt % in water): 98.6% | Purity(%) at Day 14 (10 wt % in water): 98.2% | Purity(%) at Day 21 (10 wt % in water): 97.7% | Purity(%) at Day 28 (10 wt % in water): 97.4% | Purity (%) at Day 3 (15 wt % in water): 98.5% | Purity (%) at Day 7 (15 wt % in water): 98.4% | Purity (%) at hr 0 (15 wt % in water): 98.6% | Purity(%) at Day 14 (15 wt % in water): 98.1% | Purity(%) at Day 21 (15 wt % in water): 97.7% | Purity(%) at Day 28 (15 wt % in water): 97.3% | Purity (%) at Day 3 (20 wt % in water): 98.4% | Purity (%) at Day 7 (20 wt % in water): 98.3% | Purity (%) at hr 0 (20 wt % in water): 98.6% | Purity(%) at Day 14 (20 wt % in water): 98.2% | Purity(%) at Day 21 (20 wt % in water): 97.8% | Purity(%) at Day 28 (20 wt % in water): 97.3% | Purity (%) at Day 3 (30 wt % in water): 98.4% | Purity (%) at Day 7 (30 wt % in water): 98.4% | Purity (%) at hr 0 (30 wt % in water): 98.5% | Purity(%) at Day 14 (30 wt % in water): 98.3% | Purity(%) at Day 21 (30 wt % in water): 97.7% | Purity(%) at Day 28 (30 wt % in water): 97.4% | Purity (%) at Day 3 (50 wt % in water): 98.4% | Purity (%) at Day 7 (50 wt % in water): 98.3% | Purity (%) at hr 0 (50 wt % in water): 98.6% | Purity(%) at Day 14 (50 wt % in water): 98.2% | Purity(%) at Day 21 (50 wt % in water): 97.8% | Purity(%) at Day 28 (50 wt % in water): 97.4%

Purity (%) at Day 3 (0.01 wt % in water): 83.4% | Purity (%) at Day 7 (0.01 wt % in water): 73.2% | Purity (%) at hr 0 (0.01 wt % in water): 97.6% | Purity(%) at Day 14 (0.01 wt % in water): 55.2% | Purity(%) at Day 21 (0.01 wt % in water): 43.1% | Purity(%) at Day 28 (0.01 wt % in water): 32.0% | Purity (%) at Day 3 (0.1 wt % in water): 93.7% | Purity (%) at Day 7 (0.1 wt % in water): 88.3% | Purity (%) at hr 0 (0.1 wt % in water): 97.7% | Purity(%) at Day 14 (0.1 wt % in water): 80.6% | Purity(%) at Day 21 (0.1 wt % in water): 71.5% | Purity(%) at Day 28 (0.1 wt % in water): 60.7% | Purity (%) at Day 3 (1 wt % in water): 95.1% | Purity (%) at Day 7 (1 wt % in water): 90.8% | Purity (%) at hr 0 (1 wt % in water): 98.0% | Purity(%) at Day 14 (1 wt % in water): 85.1% | Purity(%) at Day 21 (1 wt % in water): 80.3% | Purity(%) at Day 28 (1 wt % in water): 73.8% | Purity (%) at Day 3 (3 wt % in water): 96.0% | Purity (%) at Day 7 (3 wt % in water): 94.3% | Purity (%) at hr 0 (3 wt % in water): 98.1% | Purity(%) at Day 14 (3 wt % in water): 89.7% | Purity(%) at Day 21 (3 wt % in water): 84.8% | Purity(%) at Day 28 (3 wt % in water): 80.6% | Purity (%) at Day 3 (5 wt % in water): 97.8% | Purity (%) at Day 7 (5 wt % in water): 97.2% | Purity (%) at hr 0 (5 wt % in water): 98.2% | Purity(%) at Day 14 (5 wt % in water): 95.3% | Purity(%) at Day 21 (5 wt % in water): 93.0% | Purity(%) at Day 28 (5 wt % in water): 90.3% | Purity (%) at Day 3 (7 wt % in water): 98.3% | Purity (%) at Day 7 (7 wt % in water): 98.1% | Purity (%) at hr 0 (7 wt % in water): 98.4% | Purity(%) at Day 14 (7 wt % in water): 98.0% | Purity(%) at Day 21 (7 wt % in water): 97.5% | Purity(%) at Day 28 (7 wt % in water): 97.0% | Purity (%) at Day 3 (8 wt % in water): 98.2% | Purity (%) at Day 7 (8 wt % in water): 98.2% | Purity (%) at hr 0 (8 wt % in water): 98.3% | Purity(%) at Day 14 (8 wt % in water): 98.1% | Purity(%) at Day 21 (8 wt % in water): 97.6% | Purity(%) at Day 28 (8 wt % in water): 97.0% | Purity (%) at Day 3 (10 wt % in water): 98.3% | Purity (%) at Day 7 (10 wt % in water): 98.3% | Purity (%) at hr 0 (10 wt % in water): 98.4% | Purity(%) at Day 14 (10 wt % in water): 98.0% | Purity(%) at Day 21 (10 wt % in water): 97.5% | Purity(%) at Day 28 (10 wt % in water): 97.1% | Purity (%) at Day 3 (15 wt % in water): 98.4% | Purity (%) at Day 7 (15 wt % in water): 98.2% | Purity (%) at hr 0 (15 wt % in water): 98.4% | Purity(%) at Day 14 (15 wt % in water): 98.1% | Purity(%) at Day 21 (15 wt % in water): 97.7% | Purity(%) at Day 28 (15 wt % in water): 97.2% | Purity (%) at Day 3 (20 wt % in water): 98.4% | Purity (%) at Day 7 (20 wt % in water): 98.3% | Purity (%) at hr 0 (20 wt % in water): 98.4% | Purity(%) at Day 14 (20 wt % in water): 98.2% | Purity(%) at Day 21 (20 wt % in water): 97.6% | Purity(%) at Day 28 (20 wt % in water): 97.2% | Purity (%) at Day 3 (30 wt % in water): 98.4% | Purity (%) at Day 7 (30 wt % in water): 98.2% | Purity (%) at hr 0 (30 wt % in water): 98.5% | Purity(%) at Day 14 (30 wt % in water): 98.1% | Purity(%) at Day 21 (30 wt % in water): 97.8% | Purity(%) at Day 28 (30 wt % in water): 97.3% | Purity (%) at Day 3 (50 wt % in water): 98.3% | Purity (%) at Day 7 (50 wt % in water): 98.2% | Purity (%) at hr 0 (50 wt % in water): 98.4% | Purity(%) at Day 14 (50 wt % in water): 98.2% | Purity(%) at Day 21 (50 wt % in water): 97.7% | Purity(%) at Day 28 (50 wt % in water): 97.3%
SMILES: CCN(CC)CCOC(=O)CCCc1ccc(N(CCS(C)(=O)=O)CCS(C)(=O)=O)cc1.Cl

SMILES: CCN(CC)CCOC(=O)CCCc1ccc(N(CCCl)CCCl)cc1.Cl [2-(diethylamino)ethyl 4-[bis(2-chloroethyl)amino]benzenebutyrate.HCl]
Stability when the concentration is 0.1% or lower (in water at 25° C.): not stable
